Results on 3 compounds are retold here after patent US20160082066A1, “Method Use of Polymethoxyflavones (PMFs) in Body Composition Management” (priority 2014, published 2016).

For assay [1] the following is noted: EGCG stand alone; young, healthy adults; cited from earlier work.
Assay [2] relates to 3T3-L1 preadipocytes. The experiment in a line: Oil Red O lipid accumulation in differentiating 3T3-L1 preadipocytes. The note with it: DMI 2 days, then insulin medium with substance 8 days; absorbance at 520 nm; FIG. 1-3. It is filed as cell-based.
Method: Ten days after the initiation of differentiation, lipid accumulation was measured by Oil Red O staining.
3T3-L1 preadipocytes were incubated with DMI (DMEM with IBMX, DEX and insulin) for two days, and then replaced with DMEM medium containing insulin with or without ECG, EGCG and PMFs at indicated concentrations, respectively for 8 days. The 3T3-L1preadipocytes were stained with Oil Red O and photographed. Lipid content was extracted from Oil Red O stained cells by 2-propanol and quantified with spectrophotometric analysis at 520 nm.
3T3-L1 preadipocytes were incubated with DMI (DMEM with IBMX, DEX and insulin) for two days, and then replaced with DMEM medium containing insulin with or without ECG, EGCG and PMFs at indicated concentrations, respectively for 8 days. The 3T3-L1preadipocytes were stained with Oil Red 0. Lipid content was extracted from Oil Red O stained cells by 2-propanol and quantified with spectrophotometric analysis at 520 nm.
3T3-L1 preadipocytes were incubated with DMI (DMEM with IBMX, DEX and insulin) for two days, and then replaced with DMEM medium containing insulin with or without Lychee extracts and PMFs, or in combination at indicated concentrations, respectively for 8 days. […] Lipid content was extracted from Oil Red O stained cells by 2-propanol and quantified with spectrophotometric analysis at 520 nm.
Assay [3] deals with T1, catechol-O-methyltransferase (Homo sapiens, UniProt P21964).
T1 sequence (P21964 1-271): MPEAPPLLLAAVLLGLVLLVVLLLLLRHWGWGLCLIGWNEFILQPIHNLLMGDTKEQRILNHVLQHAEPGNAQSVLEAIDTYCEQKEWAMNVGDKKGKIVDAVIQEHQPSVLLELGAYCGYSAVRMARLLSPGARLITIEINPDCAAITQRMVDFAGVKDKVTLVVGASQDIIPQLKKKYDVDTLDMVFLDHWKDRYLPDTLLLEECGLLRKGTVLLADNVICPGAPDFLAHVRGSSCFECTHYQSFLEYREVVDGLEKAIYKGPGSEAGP
The following applies: cited from earlier work.

The test system of assay [4] is high-fat diet-induced obesity in mice. The following applies: cited from earlier work.
Assay [5] has as its system 3T3-L1 preadipocytes. The note with it: tissue culture; cited from earlier work.

For the compound `O=C(O[C@@H]1Cc2c(O)cc(O)cc2O[C@@H]1c1cc(O)c(O)c(O)c1)c1cc(O)c(O)c(O)c1` [EGCG, epigallocatechin gallates], in assay [1], the “resting metabolic rate (RMR) and thermal effects of feeding (TEF)” value is on record as “would not increase”. In the assay on 3T3-L1 preadipocytes [2], the “lipid accumulation in differentiated adipocytes (Oil Red O staining)” value is on record as “decreased only slightly”. For the same compound, the catechol-O-methyltransferase activity result in assay [3] was “inhibits”.
For `O=C(O[C@@H]1Cc2c(O)cc(O)cc2O[C@@H]1c1ccc(O)c(O)c1)c1cc(O)c(O)c(O)c1` [ECG, epicatechin gallates], the “lipid accumulation in differentiated adipocytes (Oil Red O staining)” value in the assay with 3T3-L1 preadipocytes [2] is recorded as “decreased only slightly”.
With `COc1ccc(-c2cc(=O)c3c(OC)c(OC)c(OC)c(OC)c3o2)cc1OC` [nobiletin], the “obesity and insulin resistance” value in assay [4] is “alleviating obesity and insulin resistance”. In the assay on 3T3-L1 preadipocytes [5], the “differentiation of 3T3-L1 preadipocytes into adipocytes” value was “potently suppressing”.
